Results from patent US8815233B2, “Method for treating pervasive development disorders” (Curemark LLC, priority 1999, dated 2014).

Legend:
[1] = system: autistic children; assay: Fecal Chymotrypsin Test after secretin infusion in autistic children; type: in vivo, human
Description: In this experiment, 16 children diagnosed as having autism were administered the following Fecal Chymotrypsin Test in accordance with an embodiment of the invention. First, approximately 2 grams of stool were collected from each child and placed in a sterile container (although it is to be understood that any quantity of stool may be collected, as 2 grams of stool is not a required amount). Each stool sample was then analyzed using, e.g., an enzymatic photospectrometry analysis as is known by those skilled in the art, to determine the level of fecal chymotrypsin in the stool. Although the enzymatic photospectrophotometry process is preferred, any suitable conventional method may be used for measuring the fecal chymotrypsin levels. The measured chymotrypsin levels of the 16 autistic children are illustrated in FIG. 13.
After determining the chymotrypsin levels of the stools, each of these levels were compared with threshold chymotrypsin levels to determine if the child was likely to benefit from secretin administration. By way of example, with the fecal chymotrypsin tests of the stool samples being performed at 30° C., normal levels of chymotrypsin are deemed to lie above 8.4 U/gram, whereas pathologically abnormal levels are deemed to lie below 4.2 U/gram. In addition, chymotrypsin levels between 8.4 U/gram and 4.2 U/gram are considered equivocal, and further testing of the individual's fecal chymotrypsin levels over a period of time should be performed.
(§1) For each of the 16 autistic children tested, a preferred secretin infusion process according to the present invention was performed involving the administering of 1 U/kg of body weight of Secretin-Ferring for a period of nine months at intervals of approximately 6 weeks. In addition, another CARS test was administered to each of the 16 autistic children 3 weeks post secretin administration to determine if their autism had changed post infusion.
A preferred secretin infusion process includes the initial step of prepping an arm of the candidate child with an IV injection of saline. A test dose of 1 U of Secretin-Ferring is then administered to the child. Approximately one minute after infusion, the child is examined for signs of allergic reaction including rash, increased heart rate, and increase of blood pressure. […] Subsequently, each child receives a 1 U/kg of body weight infusion of Secretin-Ferring approximately every 6 weeks for 9 months. […]
In this experiment, 37 autistic children with abnormal fecal chymotrypsin levels were administered secretin over the course of 6 months using the secretin infusion process described above. Their fecal chymotrypsin (FC) levels were measured weekly using the fecal chymotrypsin test described above.

[2] = system: autistic children; assay: CARS (Childhood Autism Rating Scale) test pre/post secretin in autistic children; type: in vivo, human; settings: 16 autistic children
Description: Upon determining that a given child was likely to benefit from secretin administration based on the results of the fecal chymotrypsin test, the child was administered a CARS (Childhood Autism Rating Scale) test prior to being scheduled for secretin infusion.
as §1
A preferred secretin infusion process includes the initial step of prepping an arm of the candidate child with an IV injection of saline. A test dose of 1 U of Secretin-Ferring is then administered to the child. Approximately one minute after infusion, the child is examined for signs of allergic reaction including rash, increased heart rate, and increase of blood pressure. […] Subsequently, each child receives a 1 U/kg of body weight infusion of Secretin-Ferring approximately every 6 weeks for 9 months. It is to be understood that any commercially available form of secretin may be used.

[3] = system: children diagnosed with Autism; settings: Horvath et al. 1998; secretin given as diagnostic procedure during upper gastrointestinal endoscopy; cited from earlier work

secretin
fecal chymotrypsin level post-secretin administration ([1]; each of 16 autistic children, approx. one week after first infusion, 1 U/kg IV Secretin-Ferring, vs pre-secretin (all abnormal)): increased | # Autistic Children w/Equivocal FC levels ([1]; of 37 children, 6 months post-secretin, pre-secretin 0, equivocal 4.2-8.4 U/gram): 2 | # Autistic Children w/normal FC levels ([1]; of 37 children, 6 months post-secretin, pre-secretin 0, normal above 8.4 U/gram): 34 | # Autistic Children w/Abnormal FC levels ([1]; of 37 children, 6 months post-secretin, pre-secretin 37, abnormal below 4.2 U/gram): 1 | CARS component scores (except fear) ([2]; 3 weeks post secretin infusion): improvement | CARS fear component score ([2]; 3 weeks post secretin infusion): increased | CARS scores (overall) ([2]; approx. 3 weeks after first secretin administration, 1 U/kg IV, vs pre-secretin): overall decrease | symptoms associated with Autism after secretin administration [3]: ameliorating the symptoms associated with Autism
